The target in assay [1] is T1, recombinant human 17β-HSD2 (Homo sapiens, UniProt P37059).
T1 construct: made in house; host or cells: Sd9 (Sf9) insect cells, baculovirus (Bac to Bac Expression System)
T1 sequence (P37059 1-387): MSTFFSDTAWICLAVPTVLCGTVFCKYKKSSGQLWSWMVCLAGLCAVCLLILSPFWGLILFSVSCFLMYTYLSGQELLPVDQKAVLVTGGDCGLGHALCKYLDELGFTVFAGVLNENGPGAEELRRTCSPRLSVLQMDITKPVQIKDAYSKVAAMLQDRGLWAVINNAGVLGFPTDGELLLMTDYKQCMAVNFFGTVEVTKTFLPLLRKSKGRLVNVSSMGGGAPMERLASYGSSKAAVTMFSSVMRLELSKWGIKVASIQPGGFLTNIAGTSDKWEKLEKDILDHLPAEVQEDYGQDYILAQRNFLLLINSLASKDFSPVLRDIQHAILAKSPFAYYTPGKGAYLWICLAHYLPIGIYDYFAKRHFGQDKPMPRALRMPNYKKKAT
Kind of assay: Inhibition of recombinant human 17β-HSD2. It counts as biochemical. Conditions: inhibitor at 1 μM, 50 nM estradiol, 1 mM NADH, 30 min at RT; for inhibition at 1 µM: read-out: 17β-HSD2 Inhibition % at 1 μM. The method, then: Similarly to 17β-HSD1 the Recombinant baculovirus was generated by the “Bac to Bac Expression System” (Invitrogen). Recombinant bacmid was transfected to Sd9 insect cells using “Cellfectin Reagent” (Invitrogen). 60 h later cells were harvested and supernatant were fractionated by the following protocol: • cells were dissolved into 40 ml of A-buffer (40 mM TRIS, pH8.0, 20% glycerol, 20 μM NAD, 0.4 mM PMSF, 150 mM NaCl, 0.5% dodecyl-β-maltoside+protease inhibitor cocktail) • cells were sonicated • lysate was incubated on ice for 15 min • lysate was centrifuged 5000 rpm 15 min, +4° C. • centrifugation of the supernatant 180 000 g 30 min, +4° C. • pellet was dissolved into 8 ml of A-buffer • not resuspended material was removed by centrifugation 5000 rpm 15 min, +4° C. • the clear supernatant was divided into 100 μl aliquots and were stored frozen until determination of enzymatic activity.
The amount of 17β-HSD2 was analysed by immunoblotting and total protein concentration of each extract batch was determined.
Recombinant protein (4 μg/ml) was incubated in 20 mM KH2PO4 pH 8.5 with 50 nM estradiol (including 800 000 cpm/ml of ^3H-estradiol) and 1 mM NADH for 30 min at RT, in the presence of the potential inhibitor at concentrations 1 μM or 0.1 μM. Inhibitor stock solutions were prepared in DMSO. Final concentration of DMSO was adjusted to 1% in all samples. The enzyme reaction was stopped by addition of 10% trichloroacetic acid (final concentration). Samples were centrifuged in a microtiter plate at 4000 rpm for 10 min. Supernatants were applied to reverse phase HPLC on a Waters Symmetry C18 column, equipped with a Waters Sentry Guard column. Isocratic HPLC runs were performed at RT at a flow rate of 1 ml/min in acetonitrile:water 48:52 as running solvent. Radioactivity was monitored in the eluate by a Packard Flow Scintillation Analyzer. Total radioactivity for estrone and estradiol were determined in each sample and percent conversion of estradiol to estrone was calculated according to the following formula:
(§1) [formula] Percent inhibition was calculated flowingly: % inhibition=100−% conversion

The target in assay [2] is T2, recombinant human 17β-HSD1 (Homo sapiens, UniProt P14061).
T2 construct: made in house; host or cells: Sd9 (Sf9) insect cells, baculovirus (Bac to Bac Expression System)
T2 sequence (P14061 1-328): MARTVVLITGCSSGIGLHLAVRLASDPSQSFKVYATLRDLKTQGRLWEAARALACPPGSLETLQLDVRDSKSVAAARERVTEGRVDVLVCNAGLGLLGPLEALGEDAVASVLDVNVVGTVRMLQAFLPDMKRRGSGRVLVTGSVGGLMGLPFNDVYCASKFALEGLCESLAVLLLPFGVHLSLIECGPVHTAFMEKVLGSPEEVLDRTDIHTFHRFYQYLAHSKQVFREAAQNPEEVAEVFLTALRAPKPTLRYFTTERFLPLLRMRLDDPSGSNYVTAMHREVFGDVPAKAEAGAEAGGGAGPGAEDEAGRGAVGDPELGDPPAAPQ
The assay can be described thus: Inhibition of recombinant human 17β-HSD1. The format is biochemical. Conditions: inhibitor at 1 μM; 30 nM estrone, 1 mM NADPH, 30 min at RT; read-out: 17β-HDS1 Inhibition % at 1 μM. The method, then:
Recombinant baculovirus was generated by the “Bac to Bac Expression System” (Invitrogen). Recombinant bacmid was transfected to Sd9 insect cells using “Cellfectin Reagent” (Invitrogen). 60 h later cells were harvested; the microsomal fraction was isolated as described by Puranen, T. J., Poutanen, M. H., Peltoketo, H. E., Vihko, P. T. and Vihko, R. K. (1994) Site-directed mutagenesis of the putative active site of human 17 β-hydroxysteroid dehydrogenase type 1. Biochem. J. 304: 289-293. Aliquots were stored frozen until determination of enzymatic activity.
Recombinant protein (1 μg/ml) was incubated in 20 mM KH2PO4 pH 7.4 with 30 nM estrone (including 800 000 cpm/ml of ^3H-estrone) and 1 mM NADPH for 30 min at RT, in the presence of the potential inhibitor at concentrations 1 μM or 0.1 μM. Inhibitor stock solutions were prepared in DMSO. Final concentration of DMSO was adjusted to 1% in all samples. The enzyme reaction was stopped by addition of 10% trichloroacetic acid (final concentration). Samples were centrifuged in a microtiter plate at 4000 rpm for 10 min. Supernatants were applied to reverse phase HPLC on a Waters Symmetry C18 column, equipped with a Waters Sentry Guard column. Isocratic HPLC runs were performed at RT at a flow rate of 1 ml/min in acetonitrile:water 48:52 as running solvent. Radioactivity was monitored in the eluate by a Packard Flow Scintillation Analyzer. Total radioactivity for estrone and estradiol were determined in each sample and percent conversion of estrone to estradiol was calculated according to the following formula:
as §1

As for `Cc1cnc(NC(=O)CC[C@@H]2CC(=O)[C@@]3(C)CCC4c5cc(Cl)c(O)cc5CCC4C23)s1` (stereo partly drawn) [Compound 64, 3-((13S,15R)-2-chloro-3-hydroxy-13-methyl-17-oxo-7,8,9,11,12,13,14,15,16,17-decahydro-6H-cyclopenta[a]phenanthren-15-yl)-N-(5-methylthiazol-2-yl)propanamide], the inhibition at 1 µM amounted to 5% in assay [1] and 98% in assay [2].

For the compound `Cc1cnc(NC(=O)CC[C@@H]2CC(=O)[C@@]3(C)CCC4c5cc(C(C)C)c(O)cc5CCC4C23)s1` (stereo partly drawn) [Compound 32, 3-((13S,15R)-3-hydroxy-2-isopropyl-13-methyl-17-oxo-7,8,9,11,12,13,14,15,16,17-decahydro-6H-cyclopenta[a]phenanthren-15-yl)-N-(5-methylthiazol-2-yl)propanamide], the results for the inhibition at 1 µM in assay [1] and in assay [2] were 1% and 84%, respectively.

Turning to `Cc1cnc(NC(=O)CC[C@@H]2CC(=O)[C@@]3(C)CCC4c5cc(Br)c(O)c(F)c5CCC4C23)s1` (stereo partly drawn) [Compound 71, 3-((13S,15R)-2-bromo-4-fluoro-3-hydroxy-13-methyl-17-oxo-7,8,9,11,12,13,14,15,16,17-decahydro-6H-cyclopenta[a]phenanthren-15-yl)-N-(5-methylthiazol-2-yl)propanamide], the values for the inhibition at 1 µM in assay [1] and in assay [2] were 7% and 91%, respectively.

As for `Cc1cnc(NC(=O)CC[C@@H]2CC(=O)[C@@]3(C)CCC4c5cccc(O)c5CCC4C23)s1` (stereo partly drawn) [Compound 90, 3-((13S,15R)-4-hydroxy-13-methyl-17-oxo-7,8,9,11,12,13,14,15,16,17-decahydro-6H-cyclopenta[a]phenanthren-15-yl)-N-(5-methylthiazol-2-yl)propanamide], the inhibition at 1 µM stood at 0% in assay [1] and 94% in assay [2].

In the case of `Cc1cnc(NC(=O)CC[C@@H]2CC(=O)[C@@]3(C)CCC4c5cccc([N+](=O)[O-])c5CCC4C23)s1` (stereo partly drawn) [Compound 85, 3-((13S,15R)-13-methyl-4-nitro-17-oxo-7,8,9,11,12,13,14,15,16,17-decahydro-6H-cyclopenta[a]phenanthren-15-yl)-N-(5-methylthiazol-2-yl)propanamide], the figures for the inhibition at 1 µM in assay [1] and in assay [2] were 2% and 93%, respectively.

Regarding `Cc1cnc(NC(=O)CC[C@@H]2CC(=O)[C@@]3(C)CCC4c5cc([N+](=O)[O-])c(O)cc5CCC4C23)s1` (stereo partly drawn) [Compound 34, 3-((13S,15R)-3-hydroxy-13-methyl-2-nitro-17-oxo-7,8,9,11,12,13,14,15,16,17-decahydro-6H-cyclopenta[a]phenanthren-15-yl)-N-(5-methylthiazol-2-yl)propanamide], the inhibition at 1 µM was determined as 10% in assay [1] and 91% in assay [2].

Consider `Cc1cnc(NC(=O)CC[C@@H]2CC(=O)[C@@]3(C)CCC4c5ccc(OP(=O)(O)O)cc5CCC4C23)s1` (stereo partly drawn) [Compound 7, Phosphoric acid mono-{(13S,15R)-13-methyl-15-[2-(5-methylthiazol-2-ylcarbamoyl)-ethyl]-17-oxo-7,8,9,11,12,13,14,15,16,17-decahydro-6H-cyclopenta[a]phenanthren-3-yl} ester], for which the “17β-HSD2 Inhibition % at 1 μM” value in assay [1] is reported as 3%. Also, in assay [2], the inhibition at 1 µM worked out at 80%.

As for `Cc1cnc(NC(=O)CC[C@@H]2CC(=O)[C@@]3(C)CCC4c5ccc(O)c(F)c5CCC4C23)s1` (stereo partly drawn) [Compound 66, 3-((13S,15R)-4-fluoro-3-hydroxy-13-methyl-17-oxo-7,8,9,11,12,13,14,15,16,17-decahydro-6H-cyclopenta[a]phenanthren-15-yl)-N-(5-methylthiazol-2-yl)propanamide], the results for the inhibition at 1 µM in assay [1] and in assay [2] were 8% and 98%, respectively.

In the case of `Cc1cnc(NC(=O)CC[C@@H]2CC(=O)[C@@]3(C)CCC4c5ccc(O)c(Br)c5CCC4C23)s1` (stereo partly drawn) [Compound 57, 3-((13S,15R)-4-bromo-3-hydroxy-13-methyl-17-oxo-7,8,9,11,12,13,14,15,16,17-decahydro-6H-cyclopenta[a]phenanthren-15-yl)-N-(5-methylthiazol-2-yl)propanamide], the inhibition at 1 µM in assay [1] worked out at 16%; in assay [2] it was 92%.

`Cc1cnc(NC(=O)CC[C@@H]2CC(=O)[C@@]3(C)CCC4c5cc(CN6CCCC6)c(O)cc5CCC4C23)s1` (stereo partly drawn) [Compound 45, 3-((13S,15R)-3-hydroxy-13-methyl-17-oxo-2-(pyrrolidin-1-ylmethyl)-7,8,9,11,12,13,14,15,16,17-decahydro-6H-cyclopenta[a]phenanthren-15-yl)-N-(5-methylthiazol-2-yl)propanamide]: the inhibition at 1 µM was found to be 0% in assay [1] and 83% in assay [2].

With `Cc1cnc(NC(=O)CC[C@@H]2CC(=O)[C@@]3(C)CCC4c5cc(CN(C)C)c(O)cc5CCC4C23)s1` (stereo partly drawn) [Compound 44, 3-((13S,15R)-2-((dimethylamino)methyl)-3-hydroxy-13-methyl-17-oxo-7,8,9,11,12,13,14,15,16,17-decahydro-6H-cyclopenta[a]phenanthren-15-yl)-N-(5-methylthiazol-2-yl)propanamide], the inhibition at 1 µM came out at 2% in assay [1] and 91% in assay [2].

For the compound `Cc1cnc(NC(=O)CC[C@@H]2CC(=O)[C@@]3(C)CCC4c5cc([N+](=O)[O-])c(O)c(Cl)c5CCC4C23)s1` (stereo partly drawn) [Compound 75, 3-((13S,15R)-4-chloro-3-hydroxy-13-methyl-2-nitro-17-oxo-7,8,9,11,12,13,14,15,16,17-decahydro-6H-cyclopenta[a]phenanthren-15-yl)-N-(5-methylthiazol-2-yl)propanamide], the results for the inhibition at 1 µM in assay [1] and in assay [2] were 2% and 89%, respectively.

For the compound `Cc1cnc(NC(=O)CC[C@@H]2CC(=O)[C@@]3(C)CCC4c5ccc(O)c(I)c5CCC4C23)s1` (stereo partly drawn) [Compound 54, 3-((13S,15R)-3-hydroxy-4-iodo-13-methyl-17-oxo-7,8,9,11,12,13,14,15,16,17-decahydro-6H-cyclopenta[a]phenanthren-15-yl)-N-(5-methylthiazol-2-yl)propanamide], the inhibition at 1 µM amounted to 4% in assay [1] and 86% in assay [2].

Broadly, the inhibition is the change of the read-out against control, counted positive when it falls.

The values above are taken from patent US10377791B2, “Therapeutically active estratrienthiazole derivatives as inhibitors of 17 B-hydroxysteroid dehydrogenase, type 1” (FORENDO PHARMA LTD, priority 2013, dated 2019).
